Test [1] relates to alopecia areata in mice. As to the kind of experiment: Alopecia areata model in mice (imiquimod). Format: in vivo, C3H/HeJ mice. Here is the method:
• Blank control group (no treatment) (N=5) • Blank alopecia areata model group (no treatment) (N=8) • Alopecia areata model+blank excipient group (vehicle treatment: blank gel preparation, dose: 1.5 g/kg per mouse, twice daily per mouse) (N=8) • Alopecia areata model+positive control drug group (compound Betamethasone cream (corticosteroid), twice daily, 50 mg each time per mouse) (N=8) • Alopecia areata model+0.5% MDI-1228 compound gel preparation group (dose: 1.0 g/kg per mouse, twice daily per mouse) (N=8) • Alopecia areata model+1% MDI-1228 compound gel preparation group (dose: 1.5 g/kg per mouse, twice daily per mouse) (N=8) • Alopecia areata model+3% MDI-1228 compound gel preparation group (dose: 1.5 g/kg per mouse, twice daily) (N=8) • Blank alopecia areata model (vehicle treatment: 5% DMSO+75% PEG300+20% EtOH) (N=8)
Modeling: Imiquimod cream was applied to the nape of the animals (no hair removal required), three times a week for three consecutive weeks. The control group was treated with a blank excipient without imiquimod. Each time, a clean medical cotton swab was used to apply approximately 0.03 g of imiquimod evenly over an area of about 1 cm×1 cm, and the application site was cleaned with normal saline before each application. The operation was performed gently to avoid skin abrasions or mechanical hair loss due to friction. […] During the modeling, the hair loss of the mice was recorded.
The blank control group (untreated) received no treatment; the drug groups were treated with the corresponding doses of compound betamethasone cream, blank gel preparation, and MDI-1228 compound gel preparation applied to the skin, twice daily (at 9 AM and 5 PM, with an interval of at least 6 hours). Note: To prevent animals from licking the medication off each other, after the gel was applied, the animals were placed individually in a pad-free independent cage to move around for a period of time to allow the gel to air dry for 1 hour before being returned to the normal feeding cage. Single housing is discouraged as it can lead to depression; wrapping the application area with gauze is also prohibited as it can absorb the medication.
During the treatment period, the local changes in the hair loss area of the mice were observed, and the hair growth and adverse reactions were recorded in detail, and scores were assigned according to the following table.
The reagents and instruments required for HE staining included: Hematoxylin staining solution (AR11800-1, BOSTER); Eosin staining solution (AR11800-2, BOSTER); Ultra-clean advanced mounting medium (YZB, BASO); Scott's blueing solution (G1865, Solarbio), etc. Medication refrigerator (BYC-310, Shandong Bokai Biotech); Microscope (CX41 OLYMPUS); Microtome (BQ-318D, Berne); Electric heating blast drying oven (DHG-9070A, Hengke Scientific Instrument Co., Ltd.). The taken tissue was rinsed with running water for several hours, dehydrated through a series of ethanol solutions (70%, 80%, 90%), and then treated with a mixture of pure alcohol and xylene at a ratio of 1:1 for 15 minutes, followed by xylene I for 15 minutes and xylene II for 15 minutes until transparent. The tissue was then placed in a mixture of xylene and paraffin at a ratio of 1:1 for 15 minutes, followed by immersion with paraffin I and paraffin II each for 50-60 minutes. The tissue was embedded in paraffin and sectioned.

In test [2] the test system is adipocytes. As to the kind of experiment: Lipolysis in vitro in adipocytes. Format: cell-based, C57BL/6 mouse. Conditions: 5 μM. The method, then: Newly extracted neonatal C57BL/6 mouse skin fibroblasts (specific operational steps can be found in the literature: Cell Reports (2023)/doi: 10.1016/j.celrep.2023.112647) were plated and cultured in petri dishes until the cell density reached the highest and contact inhibition. Differentiation medium (DMEM+10% FBS+1× antibiotic; specific formula can be found in the literature: Cell Reports (2023)/doi: 10.1016/j.celrep.2023.112647) was then added to induce the generation of new adipocytes. […] The control group received an equal volume of DMSO. The transformation of adipocytes was observed using a Leica inverted phase contrast microscope.

Take `CCc1cc(O)c(F)cc1-c1ccc2c(-c3nc4c([nH]3)CN(C(=O)N3CC[C@H](O)C3)C4)n[nH]c2c1` [MDI-1228, (S)-(2-(6-(2-ethyl-5-fluoro-4-hydroxyphenyl)-1H-indazol-3-yl)-4,6-dihydropyrrolo[3,4-d]imidazol-5-(1H)-yl)(3-hydroxylpyrrolidin-1-yl)ketone]: the “Skin HE staining (hair follicles)” value in test [1] (0.5%, 1%, 3% MDI-1228 gel) is given as “some therapeutic effect”. Besides, the “Area under the curve (AUC) of hair growth scores” value in test [1] (0.5%, 1%, 3% MDI-1228 gel twice daily, vs. blank gel group) is listed as “significantly promoted hair growth in alopecia areata animals”. The “Hair growth scores after 21 days” value in test [1] (3% MDI-1228 gel) is “the best effect”; in test [1] (all MDI-1228 treatment groups (0.5%, 1%, 3% gel), vs. model group) it was “significantly higher than the model group”. The “Symptoms of alopecia areata (conclusion)” value in test [1] (mouse, in vivo) was “can improve the symptoms of alopecia areata in mice to a certain extent”. Moreover, the “Lipolysis of differentiated mature adipocytes (phase contrast images)” value in test [2] is given as “promotes the lipolysis of adipocytes into smaller lipid droplets”.

These data come from patent US20250387388A1, “COMPOUND AS TRK INHIBITOR AND/OR RET INHIBITOR AND USE THEREOF” (Medinno Pharmaceutical Technology (Zhuhai) Co., Ltd., priority 2022, published 2025).
